In one data set the target is KAT6A (Homo sapiens (Human), UniProt Q92794). Kind of data set: KAT6A Biochemical Assay (radiometric 384-well, [3H]-Ac-CoA, biotinylated H4(1-30) peptide). Conditions: 5 nM KAT6A enzyme solution (2×), 60 min reaction at room temperature. On the procedure: Inhibition of KAT6A enzymatic activity by test compounds was determined using a radiometric 384-well format assay. A 10-point serial dilution of the test compounds were conducted in DMSO and then a volume of 200 nL was transferred into 384-well assay plate by Echo (Labcyte). 10 μL of 2× enzyme solution (5 nM KAT6A (Active Motif) in assay buffer (50 mM Tris-HCl pH 8.0, 50 mM KCl, 0.1 mM EDTA, 5% glycerol, 1 mM DTT)) was dispensed into assay plate except for low control wells, in which 10 μL of assay buffer was transferred. The plate was incubated at room temperature for 15 min before addition of 10 μL of 2×[^3H]-acetyl coenzyme A (Ac-CoA) and substrate peptide mix solution (500 nM (KAT6A) [^3H]-Ac-CoA (PerkinElmer) and 800 nM (KAT6A) biotinylated H4(1-30) peptide (GL Biochem) in assay buffer) to each well to start reaction. The plate was incubated at room temperature for 60 min (KAT6A), and then the reaction was stopped by adding 10 μL of stop solution (cold Ac-CoA (Cayman) in 1× assay buffer). 25 μL of reaction in each well was transferred to Flashplate (PerkinElmer) and incubated for another 1 hour at room temperature. The plate was read on Microbeta and the inhibition percentage of each compound treated well was calculated based on the equation in h %=(Max−sample)/(Max−Min)*100 where Max is signal from high control wells with enzyme, and Min is signal from low control wells with assay buffer only. The in h % data were further fit in XL-Fit to obtain IC50 values using a 4-parameter logistic (4PL) sigmoidal curve model.
Chain of KAT6A (Q92794 whole entry): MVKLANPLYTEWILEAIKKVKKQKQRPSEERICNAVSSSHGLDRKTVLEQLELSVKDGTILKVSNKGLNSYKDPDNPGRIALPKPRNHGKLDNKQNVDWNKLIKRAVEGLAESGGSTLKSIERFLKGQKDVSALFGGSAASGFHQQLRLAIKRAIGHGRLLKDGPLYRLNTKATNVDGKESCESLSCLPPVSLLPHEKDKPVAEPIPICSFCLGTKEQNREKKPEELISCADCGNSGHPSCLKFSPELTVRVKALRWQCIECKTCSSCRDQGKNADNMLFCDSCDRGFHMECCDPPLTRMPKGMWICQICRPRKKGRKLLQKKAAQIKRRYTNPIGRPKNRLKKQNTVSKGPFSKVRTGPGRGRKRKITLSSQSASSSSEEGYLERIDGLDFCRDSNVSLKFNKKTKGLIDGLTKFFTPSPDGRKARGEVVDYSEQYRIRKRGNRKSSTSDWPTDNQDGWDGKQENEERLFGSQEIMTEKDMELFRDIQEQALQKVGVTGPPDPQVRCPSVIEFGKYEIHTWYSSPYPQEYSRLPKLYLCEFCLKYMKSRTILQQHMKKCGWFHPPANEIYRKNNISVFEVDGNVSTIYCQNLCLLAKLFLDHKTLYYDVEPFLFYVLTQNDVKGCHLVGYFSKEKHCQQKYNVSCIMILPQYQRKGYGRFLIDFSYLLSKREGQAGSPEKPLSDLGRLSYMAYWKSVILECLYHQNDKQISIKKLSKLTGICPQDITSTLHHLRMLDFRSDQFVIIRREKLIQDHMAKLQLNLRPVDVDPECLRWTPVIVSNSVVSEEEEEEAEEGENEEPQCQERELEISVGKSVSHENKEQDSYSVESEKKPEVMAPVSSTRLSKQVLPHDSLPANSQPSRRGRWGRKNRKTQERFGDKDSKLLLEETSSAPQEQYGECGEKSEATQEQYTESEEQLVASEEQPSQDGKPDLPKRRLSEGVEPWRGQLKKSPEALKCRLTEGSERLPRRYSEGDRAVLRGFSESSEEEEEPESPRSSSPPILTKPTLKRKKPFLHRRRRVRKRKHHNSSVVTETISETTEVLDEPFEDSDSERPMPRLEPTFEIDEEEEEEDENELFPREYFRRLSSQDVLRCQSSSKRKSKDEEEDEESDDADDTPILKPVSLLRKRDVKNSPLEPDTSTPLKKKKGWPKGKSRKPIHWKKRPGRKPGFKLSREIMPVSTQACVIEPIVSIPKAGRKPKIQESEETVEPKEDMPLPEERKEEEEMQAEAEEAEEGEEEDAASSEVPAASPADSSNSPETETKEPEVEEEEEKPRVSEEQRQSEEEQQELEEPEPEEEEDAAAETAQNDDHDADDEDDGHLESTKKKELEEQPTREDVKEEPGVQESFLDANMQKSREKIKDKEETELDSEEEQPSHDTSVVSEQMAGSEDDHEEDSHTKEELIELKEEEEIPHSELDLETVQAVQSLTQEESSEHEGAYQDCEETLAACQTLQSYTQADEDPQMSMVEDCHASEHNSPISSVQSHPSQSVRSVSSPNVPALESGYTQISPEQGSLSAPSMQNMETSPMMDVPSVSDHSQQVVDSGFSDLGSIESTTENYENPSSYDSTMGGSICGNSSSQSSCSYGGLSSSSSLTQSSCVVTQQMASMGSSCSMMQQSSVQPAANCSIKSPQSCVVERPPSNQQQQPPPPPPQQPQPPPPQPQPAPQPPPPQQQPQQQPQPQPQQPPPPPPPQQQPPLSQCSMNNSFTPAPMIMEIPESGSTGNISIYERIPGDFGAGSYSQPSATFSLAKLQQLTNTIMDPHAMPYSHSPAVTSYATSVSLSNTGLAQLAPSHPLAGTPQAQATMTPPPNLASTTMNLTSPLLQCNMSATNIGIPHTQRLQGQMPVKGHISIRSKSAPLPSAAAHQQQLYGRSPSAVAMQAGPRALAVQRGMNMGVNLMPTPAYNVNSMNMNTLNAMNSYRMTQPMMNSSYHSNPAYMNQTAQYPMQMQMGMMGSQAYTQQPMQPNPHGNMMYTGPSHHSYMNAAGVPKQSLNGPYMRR

The nature of data set [1]: Permeability in Caco-2 Assay. Conditions: human, pH 7.4, 2 hours; for efflux ratio at 2 h, 2 μM: Caco-2, 2.00 μM bi-directionally; for Papp A→B at 2 h, 2 μM: Caco-2, 2.00 μM, pH 7.40. The data set is classed as in vitro ADME. On the procedure:
(§1) Permeability of test compounds was determined in Caco-2 Assay. Caco-2 cells purchased from ATCC were seeded onto […] (PET) in 96-well Corning Insert plates at 1×10^5 cells/cm2, and refreshed medium every 4-5 days until to the 21st to 28th day for confluent cell monolayer formation. The transport buffer in the study was HBSS with 10.0 mM HEPES at pH 7.40±0.05. Test compound was tested at 2.00 μM bi-directionally in duplicate. Digoxin was tested at 10.0 μM bi-directionally in duplicate, while nadolol and metoprolol were tested at 2.00 μM in A to B direction in duplicate. Final DMSO concentration was adjusted to less than 1%. The plate was incubated for 2 hours in CO2 incubator at 37±1° C., with 5% CO2 at saturated humidity without shaking. And all samples after mixed with acetonitrile containing internal standard were centrifuged at 3200×g for 10 min. For nadolol and metoprolol, 200 μL supernatant solution was diluted with 600 μL ultra-pure water for LC-MS/MS analysis. For digoxin and test compounds, 200 μL supernatant solution was diluted with 200 μL ultra-pure water for LC-MS/MS analysis. Concentrations of test and control compounds in starting solution, donor solution, and receiver solution were quantified by LC-MS/MS methodologies, using peak area ratio of analyte/internal standard. After transport assay, lucifer yellow rejection assay was applied to determine the Caco-2 cell monolayer integrity.
In general terms: Passage across Caco-2 layers is used to estimate intestinal permeability.

Data set [2] in a line: Kinetic solubility in 50 mM phosphate buffer (pH 7.4). The data set is classed as physicochemical. Conditions: for solubility kinetic at 24 h: aqueous buffer, kinetic from dmso stock, 50 mM phosphate buffer pH 7.4, 24 hours at room temperature. On the procedure:
10 μL of 10 mM in DMSO of test and control compounds was added into lower chambers of whatman miniuniprep vials, respectively. 490 μL of 50 mM PB (pH 7.4) was added into lower chambers of the whatman miniuniprep vials, respectively. The solubility samples were vortexted for at least 2 minutes. The miniuniprep vials were shaken on a shaker for 24 hours at room temperature at the speed of 800 rpm and then centrifuged for 20 minutes (eg. 4000 rpm). The miniunipreps were compressed to prepare the filtrates for injection into HPLC system to calculate the concentration with standard curve.

A further data set deals with Caco-2 cells. Kind of data set: Permeability in Caco-2 Assay. The class given is in vitro ADME. Conditions: comparison from Table 4 (vs compound 47 or vs PF-9363). On the procedure:
as §1

As a reminder, the IC50 is the concentration that gives 50% inhibition. As a reminder, the efflux ratio is a quotient of directional permeabilities that is used to spot active efflux. For orientation: Papp A→B means the apparent permeability from the apical to the basolateral side of a cell layer. A low value points to poor permeation. One may read the kinetic solubility as solubility judged after dilution from a stock solution rather than from solid.

≈ marks a conversion by molar mass, not a printed value.

In turn, `COc1cccc(OC)c1S(=O)(=O)Nc1noc2cc(Cn3cccn3)c3c(c12)OCCC3` [Compound 14, N-(5-((1H-pyrazol-1-yl)methyl)-3,4-dihydro-2H-chromeno [8,7-d]isoxazol-9-yl)-2,6-dimethoxybenzenesulfonamide] gave an IC50 on KAT6A of less than 10 nM. In addition, in data set [1], the efflux ratio at 2 h, 2 μM was determined as 59.6 and the Papp A→B at 2 h, 2 μM came out at 0.439 ×10⁻⁶ cm/s. The same compound yielded a kinetic solubility at 24 h in data set [2] of 16.1 µM (≈ 7.58 µg/mL).

Take `COc1cccc(OC)c1S(=O)(=O)Nc1noc2cc(Oc3ccccn3)c3c(c12)OCCC3` [Compound 24, 2,6-dimethoxy-N-(5-(pyridin-2-yloxy)-3,4-dihydro-2H-chromeno[8,7-d]isoxazol-9-yl)benzenesulfonamide]: the IC50 against KAT6A was less than 10 nM. Moreover, in data set [1], the efflux ratio at 2 h, 2 μM turned out to be 3.2 and the Papp A→B at 2 h, 2 μM was 12.9 ×10⁻⁶ cm/s. In data set [2], this compound displayed a kinetic solubility at 24 h of 189 µM (≈ 91.4 µg/mL).

As to `COc1cccc(OC)c1S(=O)(=O)Nc1noc2cc(Oc3nccs3)c3c(c12)OCCC3` [Compound 35, 2,6-dimethoxy-N-(5-(thiazol-2-yloxy)-3,4-dihydro-2H-chromeno[8,7-d]isoxazol-9-yl)benzenesulfonamide], the IC50 against KAT6A is less than 10 nM. Moreover, the “permeability compared with a reference compound” value with Caco-2 cells is given as “improved permeability”. The same compound came in with an apparent permeability from apical to basolateral (Papp A→B) at 2 h, 2 μM in data set [1] of 8.59 ×10⁻⁶ cm/s. This compound showed a solubility (kinetic) at 24 h in data set [2] of 165 µM (≈ 80.8 µg/mL). The “kinetic solubility compared with the otherwise identical compound having X group as carbon” value in data set [2] (comparison from Table 3) is on record as “improved kinetic solubility”.

Consider `COc1cccc(OC)c1S(=O)(=O)Nc1noc2cc(Cc3ccccn3)c3c(c12)OCCC3` [Compound 46, 2,6-dimethoxy-N-(5-(pyridin-2-ylmethyl)-3,4-dihydro-2H-chromeno[8,7-d]isoxazol-9-yl)benzenesulfonamide], for which the IC50 against KAT6A was less than 10 nM. Also, in data set [1], the efflux ratio at 2 h, 2 μM was 15.3 and the apical-to-basolateral permeability (Papp A→B) at 2 h, 2 μM is 2.66 ×10⁻⁶ cm/s. Also, in data set [2], the kinetic solubility at 24 h is 3.34 µM (≈ 1.61 µg/mL).

Turning to `COc1cccc(OC)c1S(=O)(=O)Nc1noc2cc(Cc3nccs3)c3c(c12)OCCC3` [Compound 47], at KAT6A, the IC50 is less than 10 nM. In data set [1], the efflux ratio at 2 h, 2 μM turned out to be 12.3 and the Papp A→B at 2 h, 2 μM was found to be 3.53 ×10⁻⁶ cm/s. Besides, the solubility (kinetic) at 24 h in data set [2] worked out at 12.1 µM (≈ 5.9 µg/mL).

At KAT6A, `COc1ccccc1S(=O)(=O)Nc1noc2cc(Oc3nccs3)cc(OC)c12` [Compound 60, 2-methoxy-N-(4-methoxy-6-(thiazol-2-yloxy)benzo[d]isoxazol-3-yl)benzenesulfonamide] showed an IC50 of less than 10 nM. Also, in data set [1], the efflux ratio at 2 h, 2 μM turned out to be 1.33 and the Papp A→B at 2 h, 2 μM worked out at 13.7 ×10⁻⁶ cm/s.

As to `COc1ccccc1S(=O)(=O)Nc1noc2cc(Oc3nccs3)c3c(c12)OCCC3` [Compound 61, 2-methoxy-N-(5-(thiazol-2-yloxy)-3,4-dihydro-2H-chromeno[8,7-d]isoxazol-9-yl)benzenesulfonamide], the IC50 on KAT6A is less than 10 nM. Besides, in data set [1], the efflux ratio at 2 h, 2 μM is 1.76 and the Papp A→B at 2 h, 2 μM was 9.38 ×10⁻⁶ cm/s.

`COc1cccc(OC)c1S(=O)(=O)Nc1noc2cc(Oc3nccs3)c3c(c12)OCCCC3` [Compound 62, 2,6-dimethoxy-N-(6-(thiazol-2-yloxy)-2,3,4,5,9,10-hexahydrooxepino[3′,2′:5,6]benzo[1,2-d]isoxazol-10-yl)benzenesulfonamide] had an IC50 against KAT6A of less than 10 nM. In addition, in data set [1], the efflux ratio at 2 h, 2 μM amounted to 3.16 and the Papp A→B at 2 h, 2 μM came to 10.6 ×10⁻⁶ cm/s.

Consider `COc1ccccc1S(=O)(=O)Nc1noc2cc(Oc3nccs3)c3c(c12)OCCCC3` [Compound 63], for which the IC50 against KAT6A is less than 10 nM. Also, in data set [1], the efflux ratio at 2 h, 2 μM was 2.88 and the Papp A→B at 2 h, 2 μM came out at 6.48 ×10⁻⁶ cm/s.

`COc1cc(C)nc(OC)c1S(=O)(=O)Nc1noc2cc(Oc3nccs3)c3c(c12)OCCCC3` [Compound 64] returned an IC50 against KAT6A of less than 10 nM. Besides, in data set [1], the efflux ratio at 2 h, 2 μM worked out at 2.82 and the Papp A→B at 2 h, 2 μM is 9 ×10⁻⁶ cm/s.

`COc1cccc(OC)c1S(=O)(=O)Nc1noc2cc(Sc3nccs3)cc(OC)c12` [Compound 66, 2,6-dimethoxy-N-(4-methoxy-6-(thiazol-2-ylthio)benzo[d]isoxazol-3-yl)benzenesulfonamide]: at KAT6A, the IC50 was less than 10 nM. Besides, in data set [1], the efflux ratio at 2 h, 2 μM is 4.25 and the Papp A→B at 2 h, 2 μM is 6.83 ×10⁻⁶ cm/s.

As to `COc1ccccc1S(=O)(=O)Nc1noc2cc(Sc3nccs3)cc(OC)c12` [Compound 67, 2-methoxy-N-(4-methoxy-6-(thiazol-2-ylthio)benzo[d]isoxazol-3-yl)benzenesulfonamide], the IC50 against KAT6A lay in the range of 10 to 100 nM. In addition, in data set [1], the efflux ratio at 2 h, 2 μM was 1.4 and the Papp A→B at 2 h, 2 μM came to 10.9 ×10⁻⁶ cm/s.

The compound `COc1cc(C)nc(OC)c1S(=O)(=O)Nc1noc2cc(Sc3nccs3)cc(OC)c12` [Compound 68, 2,4-dimethoxy-N-(4-methoxy-6-(thiazol-2-ylthio)benzo[d]isoxazol-3-yl)-6-methylpyridine-3-sulfonamide] returned an IC50 on KAT6A of 10 to 100 nM. In addition, in data set [1], the efflux ratio at 2 h, 2 μM stood at 9.74 and the Papp A→B at 2 h, 2 μM came out at 2.29 ×10⁻⁶ cm/s.

For the origin of these results see patent US20240109880A1 (Insilico Medicine IP Limited, priority 2021, published 2024).
